Source: article PMC8904520, “Characterization of a small-molecule inhibitor targeting NEMO/IKKβ to suppress colorectal cancer growth” (Signal Transduction and Targeted Therapy, 2022)

Legend:
[1] = tested on: colorectal cancer cells (LoVo, RKO, SW620, HCT15, HCT116); experiment: CCK-8 cell viability assay, colorectal cancer cells; assay type: cell-based, human; conditions: LoVo, RKO, SW620, HCT15, HCT116; 48 h
Method: Cell viability was determined using the CCK-8 assay. Briefly, 5×10³ cells were seeded into 96-well culture plates, allowed to adhere for overnight, and then changed to fresh medium containing various concentrations of SHK (0, 0.5, 1, 2 and 5 µM) dissolved in DMSO (final concentration, 0.1%). After incubation for 48 h, the CCK-8 reagent was added, and the absorbance was measured at 450 nm using an EnSpire® Multimode Plate Reader (Perkin Elmer, USA). The cell viability in the vehicle control groups was defined as 100%. Each assay was carried out in triplicate.

[2] = molecular target: T1, NEMO/IKKβ complex (Homo sapiens, UniProt O14920+Q9Y6K9); experiment: Co-immunoprecipitation of NEMO/IKKβ; conditions: pre-formed complex, Co-IP
T1 construct: expressed in transfected cells; host or cells: HEK293T
Method: The pre-cleared cell lysates were incubated with an anti-HA antibody on a rotating platform at 4 °C for 2 h, and then incubated for another 6 h with protein A/G-sepharose beads. The sepharose beads were washed three times with binding buffer, mixed with gel loading buffer and boiled for 5 min. The samples were centrifuged and the supernatants were used for western blot analysis. A specific antibody against the Flag-tag was applied for the detection of proteins.
The IKKβ and NEMO expression vectors were constructed by subcloning the full-length cDNA to pENTER-4T1 expression vector (Flag- or HA-tagged) developed by ViGene Biosciences, as described previously.[25] The 293T cells (1 × 10^6) were plated into 60 mm dishes for 1 day, and then transfected with the relevant plasmids encoding HA-IKKβ and Flag-NEMO using Lipofectamine 2000 transfection reagent (Invitrogen). After transfection, the cells were cultured for another 24 h. Subsequently, the transfected cells were trypsinized and seeded into 60 mm dishes, followed by culturing with fresh medium containing the indicated doses of SHK for 48 h, and then collected for the Co-IP assay.

T1 sequence (Q9Y6K9 1-196): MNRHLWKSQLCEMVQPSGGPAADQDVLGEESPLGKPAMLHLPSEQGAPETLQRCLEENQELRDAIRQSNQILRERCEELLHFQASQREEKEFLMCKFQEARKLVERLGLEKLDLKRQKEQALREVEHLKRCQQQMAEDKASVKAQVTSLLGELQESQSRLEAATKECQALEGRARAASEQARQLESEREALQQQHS
T1 sequence (O14920 701-745): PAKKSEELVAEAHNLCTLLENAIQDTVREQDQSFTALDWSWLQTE

SMILES	growth inhibition of cancer cell lines [1]	ability to destabilize the NEMO/IKKβ complex [2]
COC(CC=C(C)C)C1=CC(=O)c2c(O)ccc(O)c2C1=O (stereo not drawn) [MSHK, methylshikonin]	only slight growth inhibition	lost the ability to destabilize the NEMO/IKKβ complex
CC(=O)O[C@H](CC=C(C)C)C1=CC(=O)c2c(O)ccc(O)c2C1=O [ASHK, acetyl shikonin]	only slight growth inhibition	lost the ability to destabilize the NEMO/IKKβ complex
CC(C)=CCCC1=CC(=O)c2c(O)ccc(O)c2C1=O [DSHK, deoxyshikonin]	only slight growth inhibition	lost the ability to destabilize the NEMO/IKKβ complex
